Earlier results, collected in patent publication US8073633B2 (The Invention Science Fund I, LLC, priority 2008, dated 2011).

Experiments:
[1] = coadministered itraconazole relative to placebo
[2] = in vivo
[3] = given with grapefruit juice as compared to water

| SMILES | change of area under the serum concentration-time curve [AUC (0-infinity)] [1] | change of peak serum concentration (Cmax) [1] | innate oral bioavailability [2] | percentage change in Cmax values [3] [%] | further results |
| --- | --- | --- | --- | --- | --- |
| CCC(C)(C)C(=O)O[C@H]1C[C@@H](C)C=C2C=C[C@H](C)[C@H](CC[C@@H](O)C[C@@H](O)CC(=O)O)[C@H]21 [simvastatin acid] | at least tenfold | at least tenfold |  |  |  |
| CCOC(=O)C1=C(COCCN)NC(C)=C(C(=O)OC)C1c1ccccc1Cl (stereo not drawn) [amlodipine] |  |  | very high | 115 |  |
| COC(=O)C1=C(C)NC(C)=C(C(=O)OCC(C)C)C1c1ccccc1[N+](=O)[O-] (stereo not drawn) [nisoldipine] |  |  | very low | 409 |  |
| O=P1(N(CCCl)CCCl)NCCCO1 (stereo not drawn) [cyclophosphamide] |  |  |  |  | relative risk for ovarian failure (lupus nephritis patients homozygous or heterozygous for CYP2C19*2, pulse cyclophosphamide therapy): 0.10; probability of progressing to end stage renal disease (patients homozygous for CYP2B6*5 or CYP2C19*2 (P=0.0005)): higher probability; probability of achieving a complete renal response (patients homozygous for CYP2B6*5 or CYP2C19*2 (P=0.051)): lower probability |
| CC[C@H](C)C(=O)O[C@H]1C[C@H](O)C=C2C=C[C@H](C)[C@H](CC[C@@H](O)C[C@@H](O)CC(=O)O)[C@H]21 [pravastatin] | slightly increased | slightly increased |  |  | plasma half-life [1]: not altered |
